Reference: article PMC8209157, “Identification of a dual orange/far-red and blue light photoreceptor from an oceanic green picoplankton” (Nature Communications, 2021)

Tests used:
[1] = target: T1, PpPHY (PHY region of PpDUC1) (Pycnococcus provasolii, UniProt A0A830HT85); assay: UV-Vis photoconversion spectra, acid-urea denaturation and in-gel fluorescence of purified holoprotein; assay type: binding; conditions: covalent; GAF Cys; chromophore co-produced in E. coli (pKT271); HEPES pH 7.5, room temperature
T1 construct: gene PPROV_000692100; source genome assembly GCA_015473125.1
T1 sequence (A0A830HT85 1-662): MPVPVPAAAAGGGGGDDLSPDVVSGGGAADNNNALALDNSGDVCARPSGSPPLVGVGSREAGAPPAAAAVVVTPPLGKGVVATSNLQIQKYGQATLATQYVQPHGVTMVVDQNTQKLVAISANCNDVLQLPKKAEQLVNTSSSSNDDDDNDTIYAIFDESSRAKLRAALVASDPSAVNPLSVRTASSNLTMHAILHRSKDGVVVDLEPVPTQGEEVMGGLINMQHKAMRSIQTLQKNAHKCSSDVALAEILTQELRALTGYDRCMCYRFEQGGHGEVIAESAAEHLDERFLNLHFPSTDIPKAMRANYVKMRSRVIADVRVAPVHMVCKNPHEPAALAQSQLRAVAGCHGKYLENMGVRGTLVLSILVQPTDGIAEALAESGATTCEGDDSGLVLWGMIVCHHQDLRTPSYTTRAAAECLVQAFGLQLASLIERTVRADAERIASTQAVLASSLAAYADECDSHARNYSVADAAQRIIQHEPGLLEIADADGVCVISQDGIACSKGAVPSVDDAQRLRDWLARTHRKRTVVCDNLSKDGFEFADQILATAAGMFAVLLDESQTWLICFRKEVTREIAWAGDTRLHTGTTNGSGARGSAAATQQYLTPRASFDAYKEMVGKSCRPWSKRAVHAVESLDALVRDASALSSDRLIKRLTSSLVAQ

[2] = target: T1, PpPHY (PHY region of PpDUC1); assay: UV-Vis photoconversion spectra of purified holoprotein; assay type: binding; conditions: chromophore co-produced in E. coli (pKT272); HEPES pH 7.5, room temperature

Compound	UV-Vis photoconversion spectra, acid-urea denaturation and in-gel fluorescence o [1]	UV-Vis photoconversion spectra of purified holoprotein [2]
CC=C1C(=Cc2[nH]c(C=C3N=C(C=C4NC(=O)C(CC)=C4C)C(C)=C3CCC(=O)O)c(CCC(=O)O)c2C)NC(=O)C1C (centres unmarked) [PCB, phycocyanobilin]	The purified PpPHY covalently bound PCB	–
C=CC1=C(C)C(=CC2=NC(=Cc3[nH]c(C=C4NC(=O)C(C)C4=CC)c(C)c3CCC(=O)O)C(CCC(=O)O)=C2C)NC1=O (centres unmarked) [PΦB, phytochromobilin]	–	PΦB but not BV could be efficiently incorporated into the apo-PpPHY
